# Measurements published in patent US20170246144A1, “METHOD OF PREVENTING OR TREATING SPINOCEREBELLAR ATAXIA BY ADMINISTRATING SILIBININ” (National Taiwan Normal University, priority 2016, published 2017).
# Where two headings read alike, the source gives them in different places.
# Key:
# [1] = system: SH-SY5Y cells; assay: Annexin V-FITC/PI flow cytometry, apoptosis induced by MSG; type: cell-based, Human; conditions: 15 μM, 100 mM MSG, 24 hours
# Procedure: 1×10^6 SH-SY5Y cells were treated with 100 mM MSG and 15 μM SB or 10 μM MK801 (MK) for 24 hours. Cells were stained with Annexin-V/PI and the apoptosis was measured with a flow cytometry.
# In order to detect the effects of silibinin in inhibiting the apoptosis induced by glutamate in SH-SY5Y cells. The cells were measured by flow cytometry using Annexin V-FITC/propidium iodide (PI) double-labeling method.
# SH-SY5Y cells were seeded in dish and were treated with 100 mM MSG in combination of 15 μM silibinin or 10 μM MK801 for 24 hours. The cells were then trypsinized and collected by centrifugation at 2,000 rpm for […] followed by double-staining with Annexin V-FITC and PI. Stained cells were analyzed with a flow cytometry (FACS Sorter, Becton, Dickinson and Company). 10,000 cells were recorded in each experiment.
# [2] = system: SH-SY5Y cells; assay: Western blotting of Bax and Bcl-2 after MSG; type: cell-based, Human; conditions: 15 μM, 100 mM MSG, 6 hours
# Procedure: The levels of Bax and Bcl-2 in 1×10^6 SH-SY5Y cells were measured by western blotting, wherein the control group (Ctrl) was untreated SH-SY5Y cells or the cells were treated with 100 mM MSG, 100 mM MSG+15 μM SB or 100 mM MSG+10 μM MK801 (MK) for 6 hours. Actin was used as a loading control.
# In present embodiment, western blotting was performed to study whether silibinin protects SH-SY5Y cell from apoptosis due to glutamatergic excitotoxicity via mitochondria-dependent apoptosis pathway.
# It is known that the reduction of Bcl-2 level and the increases of Bax level are related to the increases of free calcium ion in cytosol. Bcl-2 is a cell-survival protein and Bax is a pro-apoptotic protein and they both mediate the releases of cytochrome C from mitochondria. Therefore, Bcl-2 and Bax are used as indicators in the present embodiment.
# [3] = system: SH-SY5Y cells; assay: Western blotting of cleaved caspase-9, cleaved caspase-3 and cleaved PARP after MSG; type: cell-based, Human; conditions: 15 μM, 100 mM MSG, 24 hours
# Procedure: FIGS. 5A-5D show the effects of SB on the levels of cleaved caspase-9, cleaved caspase-3, and cleaved poly(ADP-ribose) polymerase (PARP) in SH-SY5Y cells treated with MSG FIG. 5A: The levels of […] in 1×10^6 SH-SY5Y cells were measured by western blotting, wherein the control group (Ctrl) was untreated SH-SY5Y cells or the cells were treated with 100 mM MSG, 100 mM MSG+15 μM SB or 100 mM MSG+10 μM MK801 (MK) for 24 hours. Actin was used as a loading control. FIGS. 5B-5D show the quantification results measured by western blotting. Data were the mean values of three independent experiments.
# Caspase belongs to cysteine protease family which is typically closely related to apoptosis, wherein the activation of caspase-9, caspase-3 and […] PARP is associated with delayed excitotoxicity damages. Therefore, western blotting was performed to analyze whether silibinin can protect SH-SY5Y cells from death via caspase-dependent apoptosis pathway in the present embodiment.
# [4] = system: SH-SY5Y cells; assay: JC-1 flow cytometry of mitochondria membrane potential (MMP); type: cell-based, Human; conditions: 15 μM + 100 mM MSG
# Procedure: FIGS. 7A and 7B show the effects of SB on mitochondria membrane potential (MMP) in SH-SY5Y cells treated with MSG measured by JC-1 staining with a flow cytometry, wherein the control group (Ctrl) was untreated SH-SY5Y cells or the cells were treated with 100 mM MSG, 100 mM MSG+15 μM SB, 100 mM MSG+10 μM MK801 (MK) or 5 μM CCCP (disruptor of electron transport chain) for 12 hours. […] The results were shown as mean±SEM, n=3, *p<0.05, comparing to the MSG treatment group.
# In the present embodiment, flow cytometry analysis was used to investigate whether silibinin can prevent the reduction of mitochondria membrane potential induced by glutamate in SH-SY5Y cells.
# SH-SY5Y cells were seeded in 6 centimeter dish (1×10^6 cells/plate) for 24 hours, and then were pre-treated with 15 μM silibinin or 10 μM MK-801 for 1 hour followed by the treatment of 100 mM MSG for 12 hours. 5 μM carbonyl cyanide m-chlorophenylhydrazone (CCCP) was added to the positive control group to induce the depolarization of mitochondria membrane potential.
# The treated cells were washed, centrifuged and collected, followed by PBS wash and JC-1 dye staining for 30 minutes. The stained cells were re-suspended using phosphate buffer solution and analyzed by a flow cytometry to obtain a 2-dimensional scatter plot. 10,000 cells were recorded for each experiment.
# [5] = system: nTBP/Q79-EGFP cells; assay: Western blotting of caspase family proteins in Dox-induced nTBP/Q79-EGFP cells; type: cell-based; conditions: Homo sapiens, 120 h, Dox 5 days
# Procedure: FIGS. 8A-8C show the effects of SB on improving the viability of nTBP/Q79-EGFP cells and inhibiting the expression levels of cleaved caspase-9, cleaved caspase-3, and cleaved PARP in nTBP/Q79-EGFP cells induced by doxycycline (Dox). FIG. 8A: The viabilities of 1.0×10^6 nTBP/Q36-EGFP cells and nTBP/Q79-EGFP cells which were pretreated with 15 μM SB for 1 hour followed by the induction of Dox for 1, 3, and 5 days were measured by MTT assay. FIG. 8B: 1.0×10^6 nTBP/Q36-EGFP cells and nTBP/Q79-EGFP cells were pretreated with 15 μM SB for 1 hour followed by the induction of Dox for 5 days. The levels of cleaved caspase-9, cleaved caspase-3, and cleaved PARP were detected by western blotting. Actin was used as a loading control. […] The results were shown as mean±SD, n=3, *p<0.05, comparing to the Dox group.
# Western blotting was used to determine whether silibinin can inhibit cell death due to the expression of nTBP/Q79-EGFP via caspase-dependent apoptosis pathway.
# nTBP/Q36-EGFP cells and nTBP/Q79-EGFP cells were treated with 15 μM silibinin for 1 hour followed by the treatment of 10 μg/mL Dox and RA for 5 days.
compound,measurement,setting,value
COc1cc(C2Oc3cc([C@H]4Oc5cc(O)cc(O)c5C(=O)[C@@H]4O)ccc3OC2CO)ccc1O (stereo partly shown) [silibinin],apoptosis (apoptotic cells),[1],9.04%
same,"increase of Bcl-2 level, compared to MSG only",[2],approximately 167%
same,"reduction of Bax level, compared to MSG only",[2],80%
same,"reduction of cleaved PARP level, compared to the increased level with MSG only",[3],52%
same,"reduction of cleaved-caspase-3 level, compared to the increased level with MSG only",[3],83%
same,"reduction of cleaved-caspase-9 level, compared to the increased level with MSG only",[3],125%
same,MMP compared to Ctrl,[4],85+13%
same,inhibition at 15 µM,[5]; read-out: inhibition of cleaved-PARP level,~44%
same,inhibition at 15 µM,[5]; read-out: inhibition of cleaved-caspase-3 level,~100%
same,inhibition at 15 µM,[5]; read-out: inhibition of cleaved-caspase-9 level,~88%
